Legend:
[1] = biological target: 3',5'-cyclic-AMP phosphodiesterase 4B (Homo sapiens, UniProt Q07343); test: Inhibition of PDE4B
[2] = biological target: Dual 3',5'-cyclic-AMP and -GMP phosphodiesterase 11A (Homo sapiens, UniProt Q9HCR9); test: Inhibition of PDE11
[3] = Inhibition of PDE10
[4] = biological target: 3',5'-cyclic-AMP phosphodiesterase 4D (Homo sapiens, UniProt Q08499); test: Inhibition of PDE4D
[5] = system: Rattus norvegicus; test: Antiinflammatory activity in po dosed rat assessed as inhibition of LPS-induced pulmonary inflammation; assay type: functional
[6] = Oral bioavailability in rat at 10 mg/kg; assay type: ADME, organism-based; settings: in vivo
[7] = biological target: Cytochrome P450 2C19 (Homo sapiens, UniProt P33261); test: Inhibition of CYP2C19; assay type: ADME
Chain of Cytochrome P450 2C19 (P33261 whole entry): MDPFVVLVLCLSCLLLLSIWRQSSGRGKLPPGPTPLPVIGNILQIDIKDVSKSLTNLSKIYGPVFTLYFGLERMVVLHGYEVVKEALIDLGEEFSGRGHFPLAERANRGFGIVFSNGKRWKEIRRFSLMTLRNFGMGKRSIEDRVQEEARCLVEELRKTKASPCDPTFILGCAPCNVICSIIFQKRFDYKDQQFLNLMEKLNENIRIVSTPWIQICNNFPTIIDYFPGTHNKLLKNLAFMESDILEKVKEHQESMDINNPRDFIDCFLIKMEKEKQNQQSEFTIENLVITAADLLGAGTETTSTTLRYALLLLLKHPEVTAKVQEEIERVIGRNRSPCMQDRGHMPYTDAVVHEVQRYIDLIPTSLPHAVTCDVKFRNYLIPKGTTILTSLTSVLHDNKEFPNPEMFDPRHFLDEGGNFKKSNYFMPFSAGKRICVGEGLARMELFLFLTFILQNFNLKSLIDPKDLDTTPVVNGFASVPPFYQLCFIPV

[8] = biological target: Cytochrome P450 2D6 (Homo sapiens, UniProt P10635); test: Inhibition of CYP2D6; assay type: ADME
Chain of Cytochrome P450 2D6 (P10635 whole entry): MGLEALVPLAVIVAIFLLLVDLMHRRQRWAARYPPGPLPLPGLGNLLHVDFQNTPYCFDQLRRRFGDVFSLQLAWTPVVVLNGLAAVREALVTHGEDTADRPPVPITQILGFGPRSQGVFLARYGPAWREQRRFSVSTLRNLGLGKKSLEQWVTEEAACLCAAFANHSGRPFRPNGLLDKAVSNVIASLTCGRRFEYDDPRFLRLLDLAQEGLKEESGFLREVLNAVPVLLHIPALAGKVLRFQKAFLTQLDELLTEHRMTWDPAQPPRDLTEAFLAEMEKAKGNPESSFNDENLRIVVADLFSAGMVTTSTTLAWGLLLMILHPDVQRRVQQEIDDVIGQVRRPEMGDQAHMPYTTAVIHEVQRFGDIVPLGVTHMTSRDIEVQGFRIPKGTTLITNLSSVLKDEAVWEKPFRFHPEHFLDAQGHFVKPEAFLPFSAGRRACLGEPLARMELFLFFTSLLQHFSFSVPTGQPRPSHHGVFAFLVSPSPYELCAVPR

[9] = Inhibition of PDE4-mediated TNF-alpha release by cell based assay
[10] = biological target: Cytochrome P450 3A4 (Homo sapiens, UniProt P08684); test: Inhibition of CYP3A4; assay type: ADME
Chain of Cytochrome P450 3A4 (P08684 whole entry): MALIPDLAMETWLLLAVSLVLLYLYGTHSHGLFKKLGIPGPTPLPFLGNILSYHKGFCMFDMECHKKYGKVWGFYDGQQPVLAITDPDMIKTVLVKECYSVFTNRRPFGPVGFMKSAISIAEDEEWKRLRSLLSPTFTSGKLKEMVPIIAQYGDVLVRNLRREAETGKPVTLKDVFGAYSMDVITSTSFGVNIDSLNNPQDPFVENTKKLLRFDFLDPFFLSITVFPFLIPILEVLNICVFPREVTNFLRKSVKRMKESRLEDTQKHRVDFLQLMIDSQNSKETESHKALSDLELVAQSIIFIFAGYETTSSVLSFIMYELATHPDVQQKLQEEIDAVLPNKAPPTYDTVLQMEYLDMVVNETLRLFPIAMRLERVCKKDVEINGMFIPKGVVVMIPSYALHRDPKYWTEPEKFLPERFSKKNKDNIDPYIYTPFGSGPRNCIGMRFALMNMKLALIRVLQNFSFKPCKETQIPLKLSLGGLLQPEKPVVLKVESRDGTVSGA

[11] = biological target: Cytochrome P450 2C9 (Homo sapiens, UniProt P11712); test: Inhibition of CYP2C9; assay type: ADME
Chain of Cytochrome P450 2C9 (P11712 whole entry): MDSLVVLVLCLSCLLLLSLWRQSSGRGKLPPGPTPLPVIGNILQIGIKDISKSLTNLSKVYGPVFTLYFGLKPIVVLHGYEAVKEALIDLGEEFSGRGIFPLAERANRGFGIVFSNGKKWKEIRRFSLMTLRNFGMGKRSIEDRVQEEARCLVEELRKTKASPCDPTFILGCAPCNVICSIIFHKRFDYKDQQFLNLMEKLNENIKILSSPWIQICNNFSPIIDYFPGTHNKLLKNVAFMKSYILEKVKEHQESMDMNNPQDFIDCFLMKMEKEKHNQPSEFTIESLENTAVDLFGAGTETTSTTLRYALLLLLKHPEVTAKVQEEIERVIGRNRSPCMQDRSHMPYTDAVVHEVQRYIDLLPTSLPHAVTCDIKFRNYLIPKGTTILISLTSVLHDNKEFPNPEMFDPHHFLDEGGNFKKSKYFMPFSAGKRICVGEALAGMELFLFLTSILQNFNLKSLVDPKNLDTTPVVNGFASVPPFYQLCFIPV

[12] = Cmax in rat at 10 mg/kg, po; assay type: ADME, organism-based; set-up: dose 10 mg/kg, route oral; settings: in vivo

Chain of 3',5'-cyclic-AMP phosphodiesterase 4B (Q07343 whole entry): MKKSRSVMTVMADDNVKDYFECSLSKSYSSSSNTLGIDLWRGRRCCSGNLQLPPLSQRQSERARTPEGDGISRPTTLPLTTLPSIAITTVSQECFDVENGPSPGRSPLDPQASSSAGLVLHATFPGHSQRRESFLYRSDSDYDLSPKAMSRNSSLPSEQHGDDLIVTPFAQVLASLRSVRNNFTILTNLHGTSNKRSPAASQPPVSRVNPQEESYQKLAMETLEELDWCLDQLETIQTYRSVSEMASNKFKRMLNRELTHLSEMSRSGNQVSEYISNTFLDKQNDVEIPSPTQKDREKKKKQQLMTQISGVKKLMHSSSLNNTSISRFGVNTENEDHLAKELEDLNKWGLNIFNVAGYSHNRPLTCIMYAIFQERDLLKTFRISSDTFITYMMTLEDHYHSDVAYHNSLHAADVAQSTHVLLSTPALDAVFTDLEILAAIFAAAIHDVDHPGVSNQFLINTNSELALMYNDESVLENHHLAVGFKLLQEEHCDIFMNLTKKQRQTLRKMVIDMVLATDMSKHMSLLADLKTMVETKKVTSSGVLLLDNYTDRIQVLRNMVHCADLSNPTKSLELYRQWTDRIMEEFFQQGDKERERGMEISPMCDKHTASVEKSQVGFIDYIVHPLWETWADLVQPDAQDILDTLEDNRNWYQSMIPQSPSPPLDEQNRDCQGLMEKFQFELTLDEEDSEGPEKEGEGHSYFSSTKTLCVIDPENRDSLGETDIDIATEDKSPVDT
Chain of Dual 3',5'-cyclic-AMP and -GMP phosphodiesterase 11A (Q9HCR9 whole entry): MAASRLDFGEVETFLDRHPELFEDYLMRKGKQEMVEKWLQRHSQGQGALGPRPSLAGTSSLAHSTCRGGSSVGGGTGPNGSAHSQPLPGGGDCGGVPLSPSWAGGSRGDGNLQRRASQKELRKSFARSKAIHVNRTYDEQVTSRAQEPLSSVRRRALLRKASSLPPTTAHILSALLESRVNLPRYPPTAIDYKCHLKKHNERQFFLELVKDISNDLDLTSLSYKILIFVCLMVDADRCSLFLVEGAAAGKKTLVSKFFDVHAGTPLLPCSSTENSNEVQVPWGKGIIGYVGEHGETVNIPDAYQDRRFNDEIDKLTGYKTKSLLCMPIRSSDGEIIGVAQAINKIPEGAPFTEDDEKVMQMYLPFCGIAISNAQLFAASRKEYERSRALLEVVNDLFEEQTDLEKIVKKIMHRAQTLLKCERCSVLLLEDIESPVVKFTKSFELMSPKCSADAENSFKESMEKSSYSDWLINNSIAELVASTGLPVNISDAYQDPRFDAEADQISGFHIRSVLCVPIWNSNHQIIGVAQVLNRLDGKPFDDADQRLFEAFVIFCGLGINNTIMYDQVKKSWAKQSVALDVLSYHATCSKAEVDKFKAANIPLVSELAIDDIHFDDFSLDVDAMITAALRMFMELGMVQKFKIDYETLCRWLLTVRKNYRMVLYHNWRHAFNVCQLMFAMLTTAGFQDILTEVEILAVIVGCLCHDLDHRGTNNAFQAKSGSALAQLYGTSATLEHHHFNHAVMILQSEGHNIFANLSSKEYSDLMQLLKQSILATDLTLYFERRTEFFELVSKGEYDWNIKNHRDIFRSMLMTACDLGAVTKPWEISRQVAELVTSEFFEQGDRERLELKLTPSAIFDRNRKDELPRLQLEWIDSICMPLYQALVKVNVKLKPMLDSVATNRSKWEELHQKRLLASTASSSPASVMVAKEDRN
Chain of 3',5'-cyclic-AMP phosphodiesterase 4D (Q08499 whole entry): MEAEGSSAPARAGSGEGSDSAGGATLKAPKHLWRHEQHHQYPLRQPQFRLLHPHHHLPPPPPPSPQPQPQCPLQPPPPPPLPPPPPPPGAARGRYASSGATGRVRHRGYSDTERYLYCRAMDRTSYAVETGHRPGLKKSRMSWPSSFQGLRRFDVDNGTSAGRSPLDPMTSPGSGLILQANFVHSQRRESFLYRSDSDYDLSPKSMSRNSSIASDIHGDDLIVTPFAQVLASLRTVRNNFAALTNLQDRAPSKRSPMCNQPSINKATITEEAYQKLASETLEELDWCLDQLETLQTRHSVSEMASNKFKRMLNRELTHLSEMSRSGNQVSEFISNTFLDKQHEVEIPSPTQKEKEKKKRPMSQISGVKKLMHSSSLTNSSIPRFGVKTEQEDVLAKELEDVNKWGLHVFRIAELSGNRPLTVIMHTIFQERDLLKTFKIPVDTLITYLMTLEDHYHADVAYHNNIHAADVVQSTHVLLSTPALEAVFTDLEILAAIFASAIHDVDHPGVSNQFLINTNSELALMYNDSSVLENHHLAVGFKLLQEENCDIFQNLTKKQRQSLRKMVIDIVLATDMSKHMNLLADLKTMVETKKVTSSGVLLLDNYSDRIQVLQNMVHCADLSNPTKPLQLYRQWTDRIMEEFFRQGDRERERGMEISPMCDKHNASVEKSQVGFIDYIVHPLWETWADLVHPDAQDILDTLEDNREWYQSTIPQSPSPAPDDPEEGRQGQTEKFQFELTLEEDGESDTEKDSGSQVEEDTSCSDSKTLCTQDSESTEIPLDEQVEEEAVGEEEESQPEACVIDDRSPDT

IC50 [1] [nM] | IC50 [2] [nM] | IC50 [3] [nM] | SMILES | other results
3.7 | 4800 | 1200 | COc1ccc(-c2nc(C(=O)NCc3ccccc3)c(CN)o2)c2ccc(C(F)(F)F)nc12 | 
4.1 | 2700 | 1300 | COc1ccc(-c2nc(C(=O)NCc3ccc(F)cc3)c(CN)o2)c2ccc(C(F)(F)F)nc12 | 
26 |  |  | COc1ccc(-c2nc(C(=O)NCc3ccc(C#N)cc3)c(CN)o2)c2ccc(C(F)(F)F)nc12 | 
1.8 | 3900 | 810 | COc1ccc(-c2nc(C(=O)NCc3cccc(F)c3)c(CN)o2)c2ccc(C(F)(F)F)nc12 | 
1.2 | 2300 | 610 | COc1ccc(-c2nc(C(=O)NCc3ccccc3Cl)c(CN)o2)c2ccc(C(F)(F)F)nc12 | 
0.5 | 870 | 320 | COc1ccccc1CNC(=O)c1nc(-c2ccc(OC)c3nc(C(F)(F)F)ccc23)oc1CN | 
0.46 | 2500 | 240 | COc1ccc(-c2nc(C(=O)NCc3c(F)cccc3F)c(CN)o2)c2ccc(C(F)(F)F)nc12 | 
0.6 | 2200 | 1000 | COc1ccc(-c2nc(C(=O)NCc3ccc(F)cc3F)c(CN)o2)c2ccc(C(F)(F)F)nc12 | IC50 [4]: 0.7 nM
0.05 | 1400 | 125 | COc1ccc(-c2nc(C(=O)NCc3c(F)cccc3F)c([C@H](C)N)o2)c2ccc(C(F)(F)F)nc12 | 
0.06 | 2300 | 950 | COc1ccc(-c2nc(C(=O)NCc3ccc(F)cc3F)c([C@H](C)N)o2)c2ccc(C(F)(F)F)nc12 | ED50 [5]: 0.1 mg/kg; bioavailability [6]: 24%; IC50 [7]: > 8000 nM; IC50 [8]: > 8000 nM; IC50 [9]: 0.6 nM; IC50 [10]: > 8000 nM; IC50 [11]: > 8000 nM; Cmax [12]: 960 nM
0.7 | 1100 | 700 | COc1ccc(-c2nc(C(=O)NCc3ccc(Cl)cc3F)c([C@H](C)N)o2)c2ccc(C(F)(F)F)nc12 | 
0.6 | 2000 | 1400 | COc1ccc(-c2nc(C(=O)NCc3ccc(F)c(F)c3)c([C@H](C)N)o2)c2ccc(C(F)(F)F)nc12 | 
0.04 | 3400 | 500 | COc1ccc(-c2nc(C(=O)NCc3c(F)cc(F)cc3F)c([C@H](C)N)o2)c2ccc(C(F)(F)F)nc12 | 
12.7 |  |  | COc1ccc(-c2nc(C(=O)NCc3ccc(Cl)cc3)c([C@@H](N)CO)o2)c2ccc(C(F)(F)F)nc12 | 
8.4 |  |  | COc1ccc(-c2nc(C(=O)N[C@H](CO)c3ccccc3)c([C@@H](C)N)o2)c2ccc(C(F)(F)F)nc12 | 

More lines, now with the values behind:

SMILES | IC50 [1] [nM] | IC50 [2] [nM] | IC50 [3] [nM] | other results
COc1ccc(-c2nc(C(=O)NCc3ccc(Cl)cc3)c(CN)o2)c2ccc(C(F)(F)F)nc12 | 3.4 | 2700 | 2100 | 
COc1ccc(-c2nc(C(=O)NCc3ccc(S(C)(=O)=O)cc3)c(CN)o2)c2ccc(C(F)(F)F)nc12 | 37 |  |  | 
COc1ccc(-c2nc(C(=O)NCc3cccc(Cl)c3)c(CN)o2)c2ccc(C(F)(F)F)nc12 | 1.5 | 2100 | 770 | 
COc1ccc(-c2nc(C(=O)NCc3ccccc3F)c(CN)o2)c2ccc(C(F)(F)F)nc12 | 0.9 | 3600 | 500 | 
COc1ccc(-c2nc(C(=O)NCc3c(F)cccc3Cl)c(CN)o2)c2ccc(C(F)(F)F)nc12 | 0.1 | 1300 | 410 | 
COc1ccc(-c2nc(C(=O)NCc3ccc(Cl)cc3F)c(CN)o2)c2ccc(C(F)(F)F)nc12 | 2.7 | 2700 | 2200 | 
COc1ccc(-c2nc(C(=O)NCc3ccc(Cl)cc3Cl)c(CN)o2)c2ccc(C(F)(F)F)nc12 | 4.3 | 1100 | 1300 | 
COc1ccc(-c2nc(C(=O)NCc3ccc(F)c(F)c3)c(CN)o2)c2ccc(C(F)(F)F)nc12 | 2.6 | 2200 | 1300 | 
COc1ccc(-c2nc(C(=O)NCc3ccc(Cl)cc3)c([C@H](C)N)o2)c2ccc(C(F)(F)F)nc12 | 0.35 | 1100 | 650 | 
COc1ccc(-c2nc(C(=O)NCc3cccc(F)c3)c([C@H](C)N)o2)c2ccc(C(F)(F)F)nc12 | 0.3 | 1400 | 160 | 
COc1ccc(-c2nc(C(=O)NCc3ccccc3F)c([C@H](C)N)o2)c2ccc(C(F)(F)F)nc12 | 0.3 | 1100 | 80 | 
COc1ccc(-c2nc(C(=O)NCc3c(F)cccc3Cl)c([C@H](C)N)o2)c2ccc(C(F)(F)F)nc12 | 0.03 | 1600 | 120 | 
COc1ccc(-c2nc(C(=O)NCc3ccc(Cl)cc3Cl)c([C@H](C)N)o2)c2ccc(C(F)(F)F)nc12 | 0.7 | 1800 | 1700 | 
CC[C@H](N)c1oc(-c2ccc(OC)c3nc(C(F)(F)F)ccc23)nc1C(=O)NCc1ccc(Cl)cc1 | 0.81 |  |  | 
COc1ccc(-c2nc(C(=O)NCc3ccc(F)cc3F)c([C@@H](N)C(C)C)o2)c2ccc(C(F)(F)F)nc12 | 0.36 |  |  | 
COc1ccc(-c2nc(C(=O)N[C@H](CO)c3ccccc3)c(CN)o2)c2ccc(C(F)(F)F)nc12 | 1.6 |  |  | 
COc1ccc(-c2nc(C(=O)N[C@H](CO)c3ccccc3)c([C@H](C)N)o2)c2ccc(C(F)(F)F)nc12 | 0.11 |  |  | 
